Values of other authors in article PMC5603512, “Discovery, Semisynthesis, Antiparasitic and Cytotoxic Evaluation of 14-Membered Resorcylic Acid Lactones and Their Derivatives” (Scientific Reports, 2017).
Values after ≈ are worked out from the molar mass of the structure shown.

System: P. falciparum lines K1
Settings: cited from earlier work

COc1cc(O)c2c(c1)[C@H]1O[C@@H]1C[C@H](O)[C@H](O)C(=O)/C=C\C[C@H](C)OC2=O [Hypothemycin]
IC50 against P. falciparum line K1: 2.2 µg/mL (≈ 5.81 µM)

C[C@H]1C/C=C/[C@@H](O)[C@@H](O)CC/C=C/c2cc(O)cc(O)c2C(=O)O1 [aigialomycin D]
IC50 against P. falciparum line K1: 6.6 µg/mL (≈ 19.7 µM)
